Source: the NIST ThermoML archive (doi:10.1021/je4001894)
Numbers after ± are expanded uncertainties.

Assay: activity coefficient (dimensionless); of the first substance listed, at infinite dilution; xn = mol fraction of the nth substance listed
Conditions: 101 kPa, Liquid, Chromatography, x1 = 0

SMILES | activity coefficient (323.15 K) | activity coefficient (333.15 K) | activity coefficient (343.15 K)
Cc1ccccc1C [1,2-dimethylbenzene] + CCCC[N+]1(C)CCCC1.O=S(=O)([N-]S(=O)(=O)C(F)(F)F)C(F)(F)F | 1.61 ± 0.11 | 1.64 ± 0.11 | 1.66 ± 0.11
Cc1ccccc1C [1,2-dimethylbenzene] + CCC[N+]1(C)CCCC1.O=S(=O)([N-]S(=O)(=O)C(F)(F)F)C(F)(F)F | 1.78 ± 0.12 | 1.83 ± 0.12 | 1.87 ± 0.13
Cc1cccc(C)c1 [1,3-dimethylbenzene] + CCCC[N+]1(C)CCCC1.O=S(=O)([N-]S(=O)(=O)C(F)(F)F)C(F)(F)F | 1.78 ± 0.12 | 1.8 ± 0.12 | 1.83 ± 0.12
Cc1cccc(C)c1 [1,3-dimethylbenzene] + CCC[N+]1(C)CCCC1.O=S(=O)([N-]S(=O)(=O)C(F)(F)F)C(F)(F)F | 1.97 ± 0.13 | 1.99 ± 0.14 | 2.05 ± 0.14
Cc1ccc(C)cc1 [1,4-dimethylbenzene] + CCCC[N+]1(C)CCCC1.O=S(=O)([N-]S(=O)(=O)C(F)(F)F)C(F)(F)F | 1.78 ± 0.12 | 1.8 ± 0.12 | 1.81 ± 0.12
Cc1ccc(C)cc1 [1,4-dimethylbenzene] + CCC[N+]1(C)CCCC1.O=S(=O)([N-]S(=O)(=O)C(F)(F)F)C(F)(F)F | 1.96 ± 0.13 | 2 ± 0.14 | 2.03 ± 0.14
C1COCCO1 [1,4-dioxane] + CCCC[N+]1(C)CCCC1.O=S(=O)([N-]S(=O)(=O)C(F)(F)F)C(F)(F)F | 0.71 ± 0.05 | 0.72 ± 0.05 | 0.72 ± 0.05
C1COCCO1 [1,4-dioxane] + CCC[N+]1(C)CCCC1.O=S(=O)([N-]S(=O)(=O)C(F)(F)F)C(F)(F)F | 0.74 ± 0.05 | 0.74 ± 0.05 | 0.76 ± 0.05
C#CCCCCC [1-heptyne] + CCCC[N+]1(C)CCCC1.O=S(=O)([N-]S(=O)(=O)C(F)(F)F)C(F)(F)F | 3.98 ± 0.27 | 3.98 ± 0.27 | 3.94 ± 0.27
C#CCCCCC [1-heptyne] + CCC[N+]1(C)CCCC1.O=S(=O)([N-]S(=O)(=O)C(F)(F)F)C(F)(F)F | 4.52 ± 0.31 | 4.52 ± 0.31 | 4.51 ± 0.31
C#CCCCC [1-hexyne] + CCCC[N+]1(C)CCCC1.O=S(=O)([N-]S(=O)(=O)C(F)(F)F)C(F)(F)F | 2.89 ± 0.2 | 2.87 ± 0.2 | 2.83 ± 0.19
C#CCCCC [1-hexyne] + CCC[N+]1(C)CCCC1.O=S(=O)([N-]S(=O)(=O)C(F)(F)F)C(F)(F)F | 3.35 ± 0.23 | 3.18 ± 0.22 | 3.01 ± 0.2
CCC[N+](=O)[O-] [1-nitropropane] + CCCC[N+]1(C)CCCC1.O=S(=O)([N-]S(=O)(=O)C(F)(F)F)C(F)(F)F | 0.74 ± 0.05 | 0.73 ± 0.05 | 0.73 ± 0.05
CCC[N+](=O)[O-] [1-nitropropane] + CCC[N+]1(C)CCCC1.O=S(=O)([N-]S(=O)(=O)C(F)(F)F)C(F)(F)F | 0.77 ± 0.05 | 0.77 ± 0.05 | 0.77 ± 0.05
CC(C)CC(C)(C)C [2,2,4-trimethylpentane] + CCCC[N+]1(C)CCCC1.O=S(=O)([N-]S(=O)(=O)C(F)(F)F)C(F)(F)F | 19.2 ± 1.3 | 17.9 ± 1.2 | 17.1 ± 1.2
CC(C)CC(C)(C)C [2,2,4-trimethylpentane] + CCC[N+]1(C)CCCC1.O=S(=O)([N-]S(=O)(=O)C(F)(F)F)C(F)(F)F | 22.5 ± 1.5 | 22 ± 1.5 | 21.6 ± 1.5
CC(C)CO [2-methyl-1-propanol] + CCCC[N+]1(C)CCCC1.O=S(=O)([N-]S(=O)(=O)C(F)(F)F)C(F)(F)F | 2.37 ± 0.16 | 2.12 ± 0.14 | 1.92 ± 0.13
CC(C)CO [2-methyl-1-propanol] + CCC[N+]1(C)CCCC1.O=S(=O)([N-]S(=O)(=O)C(F)(F)F)C(F)(F)F | 2.51 ± 0.17 | 2.29 ± 0.16 | 2.1 ± 0.14
